# Key:
# Assay type in all cases: functional
# OVCAR-5 = assay: Anticancer activity against human OVCAR5 cells after 48 hrs by SRB assay; details: OVCAR-5, 48 h
# UO-31 [1] = assay: Antiproliferative activity against human UO31 cells assessed as cell growth at 10^-5 M after 48 hrs by SRB assay relative to control; details: UO-31, 48 h, read-out: Activity
# IGROV-1 = assay: Anticancer activity against human IGROV1 cells after 48 hrs by SRB assay; details: IGROV-1, 48 h
# SW-620 = assay: Anticancer activity against human SW620 cells after 48 hrs by SRB assay; details: SW-620, 48 h
# HCC 2998 = assay: Anticancer activity against human HCC2998 cells after 48 hrs by SRB assay; details: HCC 2998, 48 h
# SK-OV-3 = assay: Anticancer activity against human SKOV3 cells after 48 hrs by SRB assay; details: SK-OV-3, 48 h
# NCI/ADR-RES = assay: Anticancer activity against human NCI/ADR-RES cells after 48 hrs by SRB assay
# NCI-H322M = assay: Anticancer activity against human NCI-H322M cells after 48 hrs by SRB assay
# HL-60(TB) = assay: Anticancer activity against human HL-60(TB) cells after 48 hrs by SRB assay; details: HL-60, 48 h
# MDA-MB-468 = assay: Anticancer activity against human MDA-MB-468 cells after 48 hrs by SRB assay; details: MDA-MB-468, 48 h
# EKVX = assay: Anticancer activity against human EKVX cells after 48 hrs by SRB assay
# MOLT-4 = assay: Anticancer activity against human MOLT4 cells after 48 hrs by SRB assay; details: MOLT-4, 48 h
# COLO 205 = assay: Anticancer activity against human COLO205 cells after 48 hrs by SRB assay; details: COLO 205, 48 h
# RXF 393 = assay: Anticancer activity against human RXF393 cells after 48 hrs by SRB assay; details: RXF 393, 48 h
# LOX IMVI = assay: Anticancer activity against human LOXIMVI cells after 48 hrs by SRB assay
# 786-0 = assay: Anticancer activity against human 786-0 cells after 48 hrs by SRB assay; details: 786-0, 48 h
# ACHN = assay: Anticancer activity against human ACHN cells after 48 hrs by SRB assay
# CCRF-CEM = assay: Anticancer activity against human CCRF-CEM cells after 48 hrs by SRB assay
# UO-31 [2] = assay: Anticancer activity against human UO31 cells after 48 hrs by SRB assay; details: UO-31, 48 h
# Malme-3M = assay: Anticancer activity against human MALME-3M cells after 48 hrs by SRB assay
# A498 = assay: Anticancer activity against human A498 cells after 48 hrs by SRB assay; details: A498, 48 h
# SK-MEL-5 = assay: Anticancer activity against human SK-MEL-5 cells after 48 hrs by SRB assay; details: SK-MEL-5, 48 h
# BT-549 = assay: Anticancer activity against human BT549 cells after 48 hrs by SRB assay; details: BT-549, 48 h
# [3] = Anticancer activity against human Hs 578T cells after 48 hrs by SRB assay
# U-251 = assay: Anticancer activity against human U251 cells after 48 hrs by SRB assay; details: U-251, 48 h
# TK-10 = assay: Anticancer activity against human TK10 cells after 48 hrs by SRB assay; details: TK-10, 48 h
# MDA-MB-231 = assay: Anticancer activity against human MDA-MB-231 cells after 48 hrs by SRB assay; details: MDA-MB-231, 48 h
# MCF7 = assay: Anticancer activity against human MCF7 cells after 48 hrs by SRB assay; details: MCF7, 48 h
# T47D = assay: Anticancer activity against human T47D cells after 48 hrs by SRB assay
# MDA-MB-435 = assay: Anticancer activity against human MDA-MB-435 cells after 48 hrs by SRB assay; details: MDA-MB-435, 48 h
# A549 = assay: Anticancer activity against human A549 cells after 48 hrs by SRB assay; details: A549, 48 h
# NCI-H460 = assay: Anticancer activity against human NCI-H460 cells after 48 hrs by SRB assay; details: NCI-H460, 48 h
# SF-268 = assay: Anticancer activity against human SF268 cells after 48 hrs by SRB assay; details: SF-268, 48 h
# UACC-257 = assay: Anticancer activity against human UACC257 cells after 48 hrs by SRB assay; details: UACC-257, 48 h
# [4] = read-out: LC50 (the source's name)
structure (smiles),measurement,setting,value
Cc1cc(O)c(C2=NN(c3ccc(S(N)(=O)=O)cc3)C(c3ccc(N(C)C)cc3)C2)c(C)c1Cl (centres undefined),GI50,OVCAR-5,12.3 µM
same,LC50,OVCAR-5,49.7 µM
same,TGI,OVCAR-5,24.7 µM
same,growth at 10 µM,UO-31 [1],66.6%
same,GI50,IGROV-1,6.19 µM
same,LC50,IGROV-1,60.2 µM
same,TGI,IGROV-1,22.3 µM
same,GI50,SW-620,3.72 µM
same,LC50 (concentration killing 50% of cells),SW-620,50.2 µM
same,TGI,SW-620,15.2 µM
same,GI50,HCC 2998,6.48 µM
same,LC50,HCC 2998,43.8 µM
same,TGI,HCC 2998,19.1 µM
same,GI50,SK-OV-3,7.75 µM
same,TGI,SK-OV-3,20.6 µM
same,CC50,SK-OV-3; [4],4.54 µM
same,GI50,NCI/ADR-RES,4.63 µM
same,TGI,NCI/ADR-RES,17 µM
same,CC50,NCI/ADR-RES; [4],4.35 µM
same,GI50,NCI-H322M,5.01 µM
same,LC50,NCI-H322M,52.9 µM
same,TGI,NCI-H322M,20.2 µM
same,GI50,HL-60(TB),7.84 µM
same,TGI,HL-60(TB),20.8 µM
same,GI50,MDA-MB-468,10.7 µM
same,TGI,MDA-MB-468,24.6 µM
same,CC50,MDA-MB-468; [4],56.8 µM
same,GI50,EKVX,1880 nM
same,LC50 (concentration killing 50% of cells),EKVX,59.3 µM
same,TGI,EKVX,13.6 µM
same,GI50,MOLT-4,1940 nM
same,LC50,MOLT-4,34.9 µM
same,TGI,MOLT-4,7.26 µM
same,GI50,COLO 205,1690 nM
same,LC50,COLO 205,6.49 µM
same,TGI,COLO 205,3.31 µM
same,GI50,RXF 393,5.83 µM
same,TGI,RXF 393,21.2 µM
same,CC50,RXF 393; [4],58.9 µM
same,GI50,LOX IMVI,2340 nM
same,TGI,LOX IMVI,6.98 µM
same,CC50,LOX IMVI; [4],32.7 µM
same,GI50,786-0,4.97 µM
same,TGI,786-0,17.4 µM
same,CC50,786-0; [4],43.4 µM
same,GI50,ACHN,3.7 µM
same,TGI,ACHN,14.4 µM
same,CC50,ACHN; [4],39.5 µM
same,GI50,CCRF-CEM,3.64 µM
same,TGI,CCRF-CEM,13.5 µM
same,CC50,CCRF-CEM; [4],44.4 µM
same,GI50,UO-31 [2],3.78 µM
same,TGI,UO-31 [2],19.2 µM
same,CC50,UO-31 [2]; [4],52.3 µM
same,GI50,Malme-3M,14.8 µM
same,TGI,Malme-3M,35.2 µM
same,CC50,Malme-3M; [4],83.4 µM
same,GI50,A498,6.97 µM
same,TGI,A498,19.3 µM
same,CC50,A498; [4],44.2 µM
same,GI50,SK-MEL-5,9.59 µM
same,LC50 (concentration killing 50% of cells),SK-MEL-5,46.2 µM
same,TGI,SK-MEL-5,21.4 µM
same,GI50,BT-549,1310 nM
same,TGI,BT-549,27.7 µM
same,CC50,BT-549; [4],58.9 µM
same,GI50,[3],3.45 µM
same,TGI,[3],20 µM
same,CC50,[3]; [4],91.5 µM
same,GI50,U-251,3.34 µM
same,LC50,U-251,53.7 µM
same,TGI,U-251,13.5 µM
same,GI50,TK-10,4.48 µM
same,TGI,TK-10,18.8 µM
same,CC50,TK-10; [4],69.5 µM
same,GI50,MDA-MB-231,2340 nM
same,TGI,MDA-MB-231,11.8 µM
same,CC50,MDA-MB-231; [4],38.7 µM
same,GI50,MCF7,2010 nM
same,TGI,MCF7,10.5 µM
same,CC50,MCF7; [4],37.1 µM
same,GI50,T47D,2930 nM
same,TGI,T47D,14.9 µM
same,CC50,T47D; [4],49.8 µM
same,GI50,MDA-MB-435,3.57 µM
same,LC50 (concentration killing 50% of cells),MDA-MB-435,41.5 µM
same,TGI,MDA-MB-435,14.8 µM
same,GI50,A549,5.91 µM
same,LC50,A549,73.4 µM
same,TGI,A549,22.5 µM
same,GI50,NCI-H460,2530 nM
same,TGI,NCI-H460,7.24 µM
same,CC50,NCI-H460; [4],29.8 µM
same,GI50,SF-268,5.76 µM
same,TGI,SF-268,19.4 µM
same,CC50,SF-268; [4],48.9 µM
same,GI50,UACC-257,11.9 µM
same,LC50,UACC-257,60.2 µM
same,TGI,UACC-257,26.8 µM

# Reference: ChEMBL document CHEMBL1949518, “Synthesis and biological evaluation of some new 2-pyrazolines bearing benzene sulfonamide moiety as potential anti-inflammatory and anti-cancer agents” (Eur J Med Chem, 2011)
